# Experimental data from PubChem BioAssay AID2060625 (Molecular Pharmacology Branch, DTP, NCI, 2025).
# Test system: 186277-243-T-J2-PDC spheroids with HUVEC/MSC, viability
# Test: Anticancer human tumor 186277-243-T-J2-PDC patient-derived colon adenocarcinoma cell line growth inhibition [CLK]
# Conditions: for IC50: curve of first compound; for viability, T/C: stronger effect = lower value
# Outline: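 Patient-derived tumor cells grown as complex spheroids with HUVEC endothelial cells and mesenchymal stem cells, treated with drug combinations. Concentrations descend in half-log steps from near clinical Cmax, or from 10 microM if Cmax unknown.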
# [1] = second compound 0.0316 µM, first compound 0.0316 µM
# [2] = second compound 0.0316 µM, first compound 0.1 µM
# [3] = second compound 0.0316 µM, first compound 0.316 µM
# [4] = second compound 0.0316 µM, first compound 1 µM
# [5] = second compound 0.0316 µM, first compound 3.16 µM
# [6] = second compound 0.0316 µM, first compound 10 µM
# [7] = second compound 0.1 µM, first compound 0.0316 µM
# [8] = second compound 0.1 µM, first compound 0.1 µM
# [9] = second compound 0.1 µM, first compound 0.316 µM
# [10] = second compound 0.1 µM, first compound 1 µM
# [11] = second compound 0.1 µM, first compound 3.16 µM
# [12] = second compound 0.1 µM, first compound 10 µM
# [13] = second compound 0.316 µM, first compound 0.0316 µM
# [14] = second compound 0.316 µM, first compound 0.1 µM
# [15] = second compound 0.316 µM, first compound 0.316 µM
# [16] = second compound 0.316 µM, first compound 1 µM
# [17] = second compound 0.316 µM, first compound 3.16 µM
# [18] = second compound 0.316 µM, first compound 10 µM
# [19] = second compound 1 µM, first compound 0.0316 µM
# [20] = second compound 1 µM, first compound 0.1 µM
# [21] = second compound 1 µM, first compound 0.316 µM
# [22] = second compound 1 µM, first compound 1 µM
# [23] = second compound 1 µM, first compound 3.16 µM
# [24] = second compound 1 µM, first compound 10 µM
# [25] = second compound 3.16 µM, first compound 0.0316 µM
# [26] = second compound 3.16 µM, first compound 0.1 µM
# [27] = second compound 3.16 µM, first compound 0.316 µM
# [28] = second compound 3.16 µM, first compound 1 µM
# [29] = second compound 3.16 µM, first compound 3.16 µM
# [30] = second compound 3.16 µM, first compound 10 µM
# [31] = second compound 10 µM, first compound 0.0316 µM
# [32] = second compound 10 µM, first compound 0.1 µM
# [33] = second compound 10 µM, first compound 0.316 µM
# [34] = second compound 10 µM, first compound 1 µM
# [35] = second compound 10 µM, first compound 3.16 µM
# [36] = second compound 10 µM, first compound 10 µM
# 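Note: compound exposure lasted seven days before readout.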
# 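Throughout, for viability, T/C: 100% = DMSO vehicle control wells.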
smiles,measurement,setting,value
Nc1ccn(C2OC(CO)C(O)C2(F)F)c(=O)n1 (centres undefined) + CN1CCN(c2cc(C(=O)Nc3cc4cc(-c5cnn(C)c5)ccc4cn3)ccn2)CC1,IC50,second compound 0.0316 µM,< 31.6 nM
same,IC50,second compound 0.1 µM,< 31.6 nM
same,IC50,second compound 0.316 µM,< 31.6 nM
same,IC50,second compound 1 µM,< 31.6 nM
same,IC50,second compound 3.16 µM,< 31.6 nM
same,IC50,second compound 10 µM,< 31.6 nM
same,"viability, T/C",[1],14%
same,"viability, T/C",[2],14.4%
same,"viability, T/C",[3],13.2%
same,"viability, T/C",[4],15.4%
same,"viability, T/C",[5],15.7%
same,"viability, T/C",[6],15%
same,"viability, T/C",[7],14.1%
same,"viability, T/C",[8],15.4%
same,"viability, T/C",[9],13.7%
same,"viability, T/C",[10],15.4%
same,"viability, T/C",[11],13.6%
same,"viability, T/C",[12],13.5%
same,"viability, T/C",[13],14.8%
same,"viability, T/C",[14],12.4%
same,"viability, T/C",[15],13.9%
same,"viability, T/C",[16],12%
same,"viability, T/C",[17],8.4%
same,"viability, T/C",[18],7.19%
same,"viability, T/C",[19],1.75%
same,"viability, T/C",[20],1.77%
same,"viability, T/C",[21],1.48%
same,"viability, T/C",[22],0.16%
same,"viability, T/C",[23],0.64%
same,"viability, T/C",[24],0.64%
same,"viability, T/C",[25],1.77%
same,"viability, T/C",[26],1.46%
same,"viability, T/C",[27],0.93%
same,"viability, T/C",[28],4.16%
same,"viability, T/C",[29],2.01%
same,"viability, T/C",[30],0.57%
same,"viability, T/C",[31],0.82%
same,"viability, T/C",[32],0.83%
same,"viability, T/C",[33],0.9%
same,"viability, T/C",[34],1.08%
same,"viability, T/C",[35],0.95%
same,"viability, T/C",[36],0.6%
O=c1[nH]cc(F)c(=O)[nH]1 + CN1CCN(c2cc(C(=O)Nc3cc4cc(-c5cnn(C)c5)ccc4cn3)ccn2)CC1,IC50,second compound 0.0316 µM,> 10000 nM
same,IC50,second compound 0.1 µM,6160 nM
same,IC50,second compound 0.316 µM,< 31.6 nM
same,IC50,second compound 1 µM,< 31.6 nM
same,IC50,second compound 3.16 µM,< 31.6 nM
same,IC50,second compound 10 µM,< 31.6 nM
same,"viability, T/C",[1],86.8%
same,"viability, T/C",[2],85.2%
same,"viability, T/C",[3],101%
same,"viability, T/C",[4],86.2%
same,"viability, T/C",[5],73%
same,"viability, T/C",[6],56.3%
same,"viability, T/C",[7],81.4%
same,"viability, T/C",[8],76.6%
same,"viability, T/C",[9],87%
same,"viability, T/C",[10],82.6%
same,"viability, T/C",[11],62.6%
same,"viability, T/C",[12],40.8%
same,"viability, T/C",[13],21.7%
same,"viability, T/C",[14],19.2%
same,"viability, T/C",[15],22.6%
same,"viability, T/C",[16],23.1%
same,"viability, T/C",[17],23.5%
same,"viability, T/C",[18],21%
same,"viability, T/C",[19],1.33%
same,"viability, T/C",[20],0.66%
same,"viability, T/C",[21],0.91%
same,"viability, T/C",[22],1.78%
same,"viability, T/C",[23],1.34%
same,"viability, T/C",[24],1.32%
same,"viability, T/C",[25],3.16%
same,"viability, T/C",[26],0.66%
same,"viability, T/C",[27],1.53%
same,"viability, T/C",[28],0.93%
same,"viability, T/C",[29],2.49%
same,"viability, T/C",[30],0.81%
same,"viability, T/C",[31],3.05%
same,"viability, T/C",[32],0.66%
same,"viability, T/C",[33],0.92%
same,"viability, T/C",[34],1.07%
same,"viability, T/C",[35],0.96%
same,"viability, T/C",[36],0.38%
